Reference: patent US7223865B2, “Chromogenic compounds, and use thereof as enzyme substrates” (Biomerieux, priority 2003, dated 2007)

Legend:
Assay type in all cases: cell-based
Candida albicans (056) = assay: L-alanine-aminopeptidase activity on gelled medium, Example 3; details: 0.3 g/l
Method: (§1) A gelled medium comprising 300 mg/l of L-Ala-4-AP-10-MA is prepared as follows: 46.37 g of Columbia agar are added to 1 liter of distilled water and then autoclaved, and the substrate is then introduced by means of a stock solution in DMSO. Microorganisms derived from the applicant's collection were seeded onto the medium, by delimitation as three dials, using a suspension at 0.5 McFarland. The dishes were incubated at 37° C. for 48 hours. The colonies formed were examined visually after incubation for 24 and 48 hours. The color of these colonies and also the intensity of this color were noted.

Listeria innocua (036) = assay: as above; details: 0.3 g/l
Method: as §1

Escherichia coli (032) = assay: as above; details: 0.3 g/l
Method: as §1

[1] = tested on: Streptococcus pyogenes (067); assay: as above; details: 0.3 g/l
Method: as §1

Citrobacter koseri (090) = assay: as above; details: 0.3 g/l
Method: as §1

[2] = tested on: Staphylococcus aureus (070); assay: as above; details: 0.3 g/l
Method: as §1

[3] = tested on: Klebsiella pneumoniae (023); assay: as above; details: 0.3 g/l
Method: as §1

Proteus mirabilis (103) = assay: as above; details: 0.3 g/l
Method: as §1

[4] = tested on: Enterococcus faecalis (075); assay: as above; details: 0.3 g/l
Method: as §1

[5] = tested on: Listeria monocytogenes (NCTC 11994); assay: L-alanine-aminopeptidase activity on gelled medium, Example 8; design: key to growth: ++ means good growth; + means moderate growth; +/− means poor growth; NG means no growth
Method: (§2) A gelled medium comprising these three substrates is prepared as follows: 30 mg of each substrate are dissolved (heating) in 10 ml of sterile distilled water. Ten ml of this solution are then added to 90 ml of Columbia agar kept molten at 50° C.
(§3) Various strains of microorganisms derived from the NCTC collection (National Collection of Type Cultures, Colindale, UK) were seeded onto the media thus obtained according to multipoint inoculation: for each strain, a drop of 10 μl of a suspension at 0.5 McFarland is deposited onto each of the culture media.
(§4) The colonies formed were examined visually after incubation for 24 h and 48 h. The color and the growth of these colonies were noted.

[6] = tested on: Burkholderia cepacia (NCTC 10743); assay: as above; design: key to growth: ++ means good growth; + means moderate growth; +/− means poor growth; NG means no growth
Method: as §2, §3, §4

[7] = tested on: Enterococcus faecium (NCTC 7171); assay: as above; design: key to growth: ++ means good growth; + means moderate growth; +/− means poor growth; NG means no growth
Method: as §2, §3, §4

[8] = tested on: Enterobacter cloacae (NCTC 11936); assay: as above; design: key to growth: ++ means good growth; + means moderate growth; +/− means poor growth; NG means no growth
Method: as §2, §3, §4

[9] = tested on: Salmonella poona (NCTC 4840); assay: as above; design: key to growth: ++ means good growth; + means moderate growth; +/− means poor growth; NG means no growth
Method: as §2, §3, §4

[10] = tested on: Staphylococcus aureus (NCTC 11939); assay: as above; design: key to growth: ++ means good growth; + means moderate growth; +/− means poor growth; NG means no growth
Method: as §2, §3, §4

[11] = tested on: Serratia marcescens (NCTC 10211); assay: as above; design: key to growth: ++ means good growth; + means moderate growth; +/− means poor growth; NG means no growth
Method: as §2, §3, §4

[12] = tested on: Staphylococcus aureus (NCTC 6571); assay: as above; design: key to growth: ++ means good growth; + means moderate growth; +/− means poor growth; NG means no growth
Method: as §2, §3, §4

[13] = tested on: Klebsiella pneumoniae (NCTC 10896); assay: as above; design: key to growth: ++ means good growth; + means moderate growth; +/− means poor growth; NG means no growth
Method: as §2, §3, §4

[14] = tested on: Enterococcus faecalis (NCTC 755); assay: as above; design: key to growth: ++ means good growth; + means moderate growth; +/− means poor growth; NG means no growth
Method: as §2, §3, §4

[15] = tested on: Pseudomonas aeruginosa (NCTC 10662); assay: as above; design: key to growth: ++ means good growth; + means moderate growth; +/− means poor growth; NG means no growth
Method: as §2, §3, §4

[16] = tested on: Enterococcus faecalis (NCTC 12697); assay: as above; design: key to growth: ++ means good growth; + means moderate growth; +/− means poor growth; NG means no growth
Method: as §2, §3, §4

[17] = tested on: E. coli O157 (NCTC 12079); assay: as above; design: key to growth: ++ means good growth; + means moderate growth; +/− means poor growth; NG means no growth
Method: as §2, §3, §4

[18] = tested on: Salmonella typhimurium (NCTC 74); assay: as above; design: key to growth: ++ means good growth; + means moderate growth; +/− means poor growth; NG means no growth
Method: as §2, §3, §4

[19] = tested on: Shigella sonnei (NCTC 9774); assay: as above; design: key to growth: ++ means good growth; + means moderate growth; +/− means poor growth; NG means no growth
Method: as §2, §3, §4

Candida lusitaniae (045) = assay: L-proline-aminopeptidase activity on gelled medium, Example 6; details: 0.3 g/l, 24 hours
Method: (§5) A gelled medium comprising L-prolyl-9-(4-amino-phenyl)acridine (hereinafter referred to as L-Pro-4-APA) is prepared as follows: 45 g of Sabouraud agar are added to 1 liter of distilled water and then autoclaved. This reaction medium comprises 0.3 g/l of L-Pro-APA also introduced by means of a stock solution in DMSO.
(§6) Microorganisms derived from the applicant's collection were seeded onto this medium, by delimitation as three dials, using a suspension of 0.5 McFarland. The dishes were incubated at 37° C. for 24 hours. The colonies formed were examined visually after incubation for 24 hours. The color of these colonies was noted before and after the addition of a drop of acetic acid, hereinafter referred to as GAA (glacial acetic acid).

Candida glabrata (051) = assay: as above; details: 0.3 g/l, 24 hours
Method: as §5, §6

Candida albicans (138) = assay: as above; details: 0.3 g/l, 24 hours
Method: as §5, §6

[20] = tested on: Candida parapsilosis (040); assay: as above; details: 0.3 g/l, 24 hours
Method: as §5, §6

[21] = tested on: Candida guilliermondii (046); assay: as above; details: 0.3 g/l, 24 hours
Method: as §5, §6

Candida krusei (026) = assay: as above; details: 0.3 g/l, 24 hours
Method: as §5, §6

`C[C@H](N)C(=O)Nc1ccc(-c2c3ccccc3[n+](C)c3ccccc23)cc1.[Cl-]` [L-Ala-4-AP-10-MA, L-alanyl-9-(4-aminophenyl)-10-methylacridinium Chloride] was tested, and the Color (Candida albicans (056); 24 H) was “colorless”, the Color (Candida albicans (056); 48 h) was “colorless” and the Color (Listeria innocua (036); 24 H) was “colorless”. The Color (Listeria innocua (036); 48 h) was “pink-orange”, the Intensity (Listeria innocua (036); 48 h) was “traces” and the Color (Escherichia coli (032); 24 H) was “pink-orange”. The Intensity (Escherichia coli (032); 24 H) was 3.5, the Color (Escherichia coli (032); 48 h) was “pink-orange” and the Intensity (Escherichia coli (032); 48 h) was 3.5. The Color ([1]; 24 H) was “inhibited”, the Color ([1]; 48 h) was “inhibited” and the Color (Citrobacter koseri (090); 24 H) was “pink-orange”. The Intensity (Citrobacter koseri (090); 24 H) was 3, the Color (Citrobacter koseri (090); 48 h) was “pink-orange” and the Intensity (Citrobacter koseri (090); 48 h) was 3. For the same molecule, the Color ([2]; 24 H) was “inhibited”, the Color ([2]; 48 h) was “inhibited” and the Color ([3]; 24 H) was “pink-orange”. For the same molecule, the Intensity ([3]; 24 H) was 3, the Color ([3]; 48 h) was “pink-orange” and the Intensity ([3]; 48 h) was 3. The Color (Proteus mirabilis (103); 24 H) was “pink-orange”, the Intensity (Proteus mirabilis (103); 24 H) was 1 and the Color (Proteus mirabilis (103); 48 h) was “pink-orange”. For the same molecule, the Intensity (Proteus mirabilis (103); 48 h) was 2, the Color ([4]; 24 H) was “pink” and the Intensity ([4]; 24 H) was “traces”. The Color ([4]; 48 h) was “pink-orange”, the Intensity ([4]; 48 h) was 0.5 and the color of colonies ([5]; 24 h) was “Colorless”. The growth ([5]; 24 h) was “++”, the color of colonies ([5]; 48 h) was “Colorless” and the growth ([5]; 48 h) was “++”. For the same molecule, the color of colonies ([6]; 24 h) was “Orange”, the growth ([6]; 24 h) was “++” and the color of colonies ([6]; 48 h) was “Orange”. For the same molecule, the growth ([6]; 48 h) was “++”, the color of colonies ([7]; 24 h) was “Colorless” and the growth ([7]; 24 h) was “++”. For the same molecule, the color of colonies ([7]; 48 h) was “Colorless”, the growth ([7]; 48 h) was “++” and the color of colonies ([8]; 24 h) was “Orange”. For the same molecule, the growth ([8]; 24 h) was “++”, the color of colonies ([8]; 48 h) was “Orange” and the growth ([8]; 48 h) was “++”. For the same molecule, the color of colonies ([9]; 24 h) was “Orange”, the growth ([9]; 24 h) was “++” and the color of colonies ([9]; 48 h) was “Orange”. For the same molecule, the growth ([9]; 48 h) was “++”, the color of colonies ([10]; 24 h) was “Colorless” and the growth ([10]; 24 h) was “++”. The color of colonies ([10]; 48 h) was “Colorless”, the growth ([10]; 48 h) was “++” and the color of colonies ([11]; 24 h) was “Orange”. For the same molecule, the growth ([11]; 24 h) was “++”, the color of colonies ([11]; 48 h) was “Orange” and the growth ([11]; 48 h) was “++”. The growth ([12]; 24 h) was “NG”, the growth ([12]; 48 h) was “NG” and the color of colonies ([13]; 24 h) was “Orange”. For the same molecule, the growth ([13]; 24 h) was “++”, the color of colonies ([13]; 48 h) was “Orange” and the growth ([13]; 48 h) was “++”. For the same molecule, the growth ([14]; 24 h) was “NG”, the growth ([14]; 48 h) was “NG” and the color of colonies ([15]; 24 h) was “Orange”. The growth ([15]; 24 h) was “++”, the color of colonies ([15]; 48 h) was “Orange” and the growth ([15]; 48 h) was “++”. For the same molecule, the color of colonies ([16]; 24 h) was “Colorless”, the growth ([16]; 24 h) was “+/−” and the color of colonies ([16]; 48 h) was “Colorless”. The growth ([16]; 48 h) was “+/−”, the color of colonies ([17]; 24 h) was “Orange” and the growth ([17]; 24 h) was “++”. For the same molecule, the color of colonies ([17]; 48 h) was “Orange”, the growth ([17]; 48 h) was “++” and the color of colonies ([18]; 24 h) was “Orange”. The growth ([18]; 24 h) was “++”, the color of colonies ([18]; 48 h) was “Orange” and the growth ([18]; 48 h) was “++”. The color of colonies ([19]; 24 h) was “Orange”, the growth ([19]; 24 h) was “++” and the color of colonies ([19]; 48 h) was “Orange”. For the same molecule, the growth ([19]; 48 h) was “++”.
For `O=C(Nc1ccc(-c2c3ccccc3nc3ccccc23)cc1)[C@@H]1CCCN1` [L-Pro-4-APA, L-Prolyl-9-(4-aminophenyl)acridine], the Color (Candida lusitaniae (045); after GAA) was “no growth”, the Color (Candida lusitaniae (045); before GAA) was “no growth” and the Color (Candida glabrata (051); after GAA) was “yellow”. For the same molecule, the Intensity (Candida glabrata (051); after GAA) was 3, the Color (Candida glabrata (051); before GAA) was “yellow” and the Intensity (Candida glabrata (051); before GAA) was 2. The Color (Candida albicans (138); after GAA) was “yellow”, the Intensity (Candida albicans (138); after GAA) was 3 and the Color (Candida albicans (138); before GAA) was “yellow”. For the same molecule, the Intensity (Candida albicans (138); before GAA) was 2, the Color ([20]; after GAA) was “yellow” and the Intensity ([20]; after GAA) was 2. The Color ([20]; before GAA) was “white”, the Color ([21]; after GAA) was “no growth” and the Color ([21]; before GAA) was “no growth”. The Color (Candida krusei (026); after GAA) was “yellow”, the Intensity (Candida krusei (026); after GAA) was 3 and the Color (Candida krusei (026); before GAA) was “yellow”. The Intensity (Candida krusei (026); before GAA) was 1.
